Assay results published in patent US20040014637A1, “Mechanism for the inactivation of insulin receptor and uses in the treatment of type II diabetes” (McGill University, priority 1998, published 2004).
Entries after “also recorded” stand apart in the source; their conditions may differ.

How the values were obtained:
EGF receptor = biological target: T1, EGF receptor (Rattus norvegicus, UniProt G3V6K6); test: EGF receptor autophosphorylation in endosomes in the presence and absence of ATP; assay type: biochemical; details: ENs from EGF-treated rats incubated with 5 mM ATP
T1 construct: from tissue; host or cells: rat liver endosomes after EGF injection in vivo
T1 sequence (G3V6K6 25-1209): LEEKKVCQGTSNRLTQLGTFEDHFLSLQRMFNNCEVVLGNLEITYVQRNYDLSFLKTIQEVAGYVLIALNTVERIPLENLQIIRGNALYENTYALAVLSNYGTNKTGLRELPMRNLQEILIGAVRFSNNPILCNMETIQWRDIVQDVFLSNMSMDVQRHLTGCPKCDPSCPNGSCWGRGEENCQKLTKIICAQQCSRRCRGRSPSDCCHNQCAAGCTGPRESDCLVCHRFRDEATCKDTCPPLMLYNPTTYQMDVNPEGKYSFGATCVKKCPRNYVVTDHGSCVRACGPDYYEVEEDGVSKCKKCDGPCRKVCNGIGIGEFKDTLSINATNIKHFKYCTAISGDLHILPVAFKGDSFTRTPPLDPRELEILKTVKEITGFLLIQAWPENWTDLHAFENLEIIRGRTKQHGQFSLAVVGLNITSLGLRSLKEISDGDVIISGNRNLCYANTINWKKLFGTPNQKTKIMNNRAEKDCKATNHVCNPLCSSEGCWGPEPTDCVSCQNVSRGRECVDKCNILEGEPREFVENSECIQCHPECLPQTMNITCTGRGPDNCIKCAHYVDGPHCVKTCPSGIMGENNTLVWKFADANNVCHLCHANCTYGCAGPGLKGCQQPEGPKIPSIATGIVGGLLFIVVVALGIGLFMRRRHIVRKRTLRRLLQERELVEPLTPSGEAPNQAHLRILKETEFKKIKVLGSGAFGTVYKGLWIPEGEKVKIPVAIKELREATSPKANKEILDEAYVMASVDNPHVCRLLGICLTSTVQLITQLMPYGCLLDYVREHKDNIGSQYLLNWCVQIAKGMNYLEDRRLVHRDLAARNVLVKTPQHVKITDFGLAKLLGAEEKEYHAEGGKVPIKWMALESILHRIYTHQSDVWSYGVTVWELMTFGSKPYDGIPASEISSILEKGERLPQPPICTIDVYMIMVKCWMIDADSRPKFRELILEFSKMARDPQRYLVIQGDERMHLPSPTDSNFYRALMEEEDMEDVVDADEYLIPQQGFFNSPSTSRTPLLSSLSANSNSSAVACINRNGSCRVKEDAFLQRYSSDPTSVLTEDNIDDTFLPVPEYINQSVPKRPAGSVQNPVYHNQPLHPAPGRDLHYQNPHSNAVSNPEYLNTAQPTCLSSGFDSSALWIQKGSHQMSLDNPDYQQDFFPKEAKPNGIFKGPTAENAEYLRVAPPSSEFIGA
Protocol: EGF (10 μg/100 g body weight) was injected via the jugular vein into anesthetized rats. The animals were sacrificed by decapitation 15 mins later and ENs containing EGF receptor were prepared as noted above. Resuspended ENs containing EGF receptor were incubated for 15 mins with 5 mM ATP after which auto-phosphorylation was initiated by adding ^32P-ATP. The reaction was stopped after 15 mins of incubation at 37° C. by adding Laemmli sample buffer after which aliquots (100 μg protein) were subjected to SDS-PAGE, alkali digestion, and radioautography as described previously (Faure, R. et al. (1992) J. Biol. Chem. 267, 11215-11221).
We then determined whether preincubation with ATP attenuated EGF receptor autophosphorylation. […] EN fractions, prepared 15 mins after injecting rats with EGF (10 μg/100 g body weight), were incubated in the presence or absence of ATP (5 mM) prior to conducting autophosphorylation with ^32P-ATP, SDS-PAGE, and autoradiography.

[1] = biological target: T2, insulin receptor kinase (IRK) (Rattus norvegicus, UniProt P15127); test: Insulin receptor kinase (IRK) exogenous tyrosine kinase activity, Poly (Glu:Tyr) (4:1) substrate, WGA-purified IRK from preincubated cell fractions; assay type: biochemical; details: for IRK activity of ENs containing IR (FIG. 1A): versus absence of ATP
T2 construct: from tissue; host or cells: rat liver; endosome (EN) and plasma membrane (PM) fractions
T2 sequence (P15127 27-759 limits assumed): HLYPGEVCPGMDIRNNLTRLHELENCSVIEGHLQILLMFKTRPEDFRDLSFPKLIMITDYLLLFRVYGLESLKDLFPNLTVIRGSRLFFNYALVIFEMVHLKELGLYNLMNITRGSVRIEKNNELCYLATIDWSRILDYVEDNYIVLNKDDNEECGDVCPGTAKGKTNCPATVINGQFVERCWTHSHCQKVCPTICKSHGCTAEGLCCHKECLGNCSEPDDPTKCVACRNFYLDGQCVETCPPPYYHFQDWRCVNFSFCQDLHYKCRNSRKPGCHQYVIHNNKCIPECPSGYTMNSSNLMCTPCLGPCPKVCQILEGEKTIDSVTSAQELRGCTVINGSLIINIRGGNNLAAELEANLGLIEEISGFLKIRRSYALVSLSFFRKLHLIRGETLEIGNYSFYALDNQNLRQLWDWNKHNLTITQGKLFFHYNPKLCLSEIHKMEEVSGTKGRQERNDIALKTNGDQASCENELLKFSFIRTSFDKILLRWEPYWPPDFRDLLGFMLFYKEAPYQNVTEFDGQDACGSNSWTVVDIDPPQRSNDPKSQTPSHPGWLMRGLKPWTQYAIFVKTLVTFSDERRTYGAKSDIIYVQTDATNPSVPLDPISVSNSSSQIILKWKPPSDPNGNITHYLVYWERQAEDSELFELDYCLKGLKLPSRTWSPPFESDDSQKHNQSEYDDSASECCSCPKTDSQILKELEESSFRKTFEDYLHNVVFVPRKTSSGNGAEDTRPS
T2 sequence (P15127 764-1383 limits assumed): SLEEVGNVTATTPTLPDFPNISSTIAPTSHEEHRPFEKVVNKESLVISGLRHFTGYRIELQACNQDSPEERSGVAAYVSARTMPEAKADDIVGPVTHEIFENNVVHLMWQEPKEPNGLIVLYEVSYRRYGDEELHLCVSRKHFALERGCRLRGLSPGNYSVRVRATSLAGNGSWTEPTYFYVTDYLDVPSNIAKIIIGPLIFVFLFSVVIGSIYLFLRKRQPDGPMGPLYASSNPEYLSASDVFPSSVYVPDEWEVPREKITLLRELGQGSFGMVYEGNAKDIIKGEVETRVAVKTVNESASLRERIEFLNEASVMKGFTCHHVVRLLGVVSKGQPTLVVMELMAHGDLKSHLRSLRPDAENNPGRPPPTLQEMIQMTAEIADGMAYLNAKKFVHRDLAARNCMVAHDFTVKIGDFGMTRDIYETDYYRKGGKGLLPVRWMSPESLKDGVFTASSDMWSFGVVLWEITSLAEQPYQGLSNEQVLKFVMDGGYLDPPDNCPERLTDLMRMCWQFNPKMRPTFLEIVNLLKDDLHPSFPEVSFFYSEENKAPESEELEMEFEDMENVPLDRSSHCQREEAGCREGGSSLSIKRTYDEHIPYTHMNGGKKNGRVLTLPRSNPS

insulin receptor = biological target: T3, insulin receptor (Rattus norvegicus, UniProt P15127); test: 125I-insulin binding after preincubating endosomes (ENs containing IR) with nucleotides; details: for 125I-insulin specific binding, WGA-purified endosomes / 125I-insulin specific binding, solubilized endosomes: preincubation 37° C. 15 min; for 125I-Insulin specific binding (%), Solubilized endosomes / 125I-Insulin specific binding (%), WGA-purified endosomes: Table 2, normalized to endosomes without nucleotide
T3 construct: from tissue; host or cells: rat liver; endosome (EN) and plasma membrane (PM) fractions
T3 sequence (P15127 27-759 limits assumed): as the sequence (P15127 27-759 limits assumed) above
T3 sequence (P15127 764-1383 limits assumed): as the sequence (P15127 764-1383 limits assumed) above
Protocol: Rats were anaesthetized with ether and were injected via jugular vein with a dose (per 100 g body weight) of insulin (1.5 μg), or bpV(phen) (0.6 μmol), dissolved in 0.2 ml. phosphate buffered saline (pH 7.4) −0.1% BSA. […] Livers were rapidly excised, placed in ice-cold homogenizing buffer (50 mM HEPES (pH 7.4), 0.25 M sucrose, 1 mM PMSF, 1 MM MgCl2, 1 mM benzamidine) and minced before homogenization. […] These subcellular fractions have been characterized in detail both morphologically and biochemically.
After 10 min at room temperature, the reactions was terminated by spotting 50 μl aliquots on Whatman 3 MM filters.
In the present study we wished to assess whether other processes might be involved in reducing the association of intraendosomal insulin with its receptor. We examined the effect of incubating intact ENs containing IR with increasing concentrations of ATP on subsequently measured insulin and hGH binding in both solubilized and WGA-purified receptors.

Nc1ncnc2c1ncn2[C@@H]1O[C@H](COP(=O)(O)OP(=O)(O)OP(=O)(O)O)[C@@H](O)[C@H]1O [ATP, adenosine 5′triphosphate]
32P-labeling (autophosphorylation) of the EGF receptor (FIG. 3B) (EGF receptor): no significant attenuation | IRK activity of ENs containing IR (FIG. 1A) ([1]; 5 mM ATP, 15 min 37° C.): marked decrease | IRK activity of ENs containing IR ([1]; 10 mM ATP, 15 min 37° C.): virtually abolished; also recorded: suppressed IRK activity completely | IRK activity of ENs containing IR (FIG. 1A) ([1]; 0.1 and 1.0 mM ATP, 15 min 37° C.): increase | Activity of WGA-purified IRK from plasma membrane (PM) (FIG. 3A) ([1]; PM containing IR preincubated with ATP (1 and 10 mM), 15 min 37° C.): augmentation of activity | IRK activity after sequential incubations (FIG. 7B) ([1]; preincubation 1 mM ATP 15 min, second incubation 5 mM ATP): marked reduction | IRK activity after sequential incubations ([1]; sequential incubations in 1 mM ATP): no deleterious effect | 125I-insulin specific binding, WGA-purified endosomes (insulin receptor; ATP 0.1 mM, percent of control): 107.7 ± 1.5% | 125I-insulin specific binding, solubilized endosomes (insulin receptor; ATP 0.1 mM, percent of control ENs without ATP): 103.6 ± 2.5% | 125I-insulin specific binding, WGA-purified endosomes (insulin receptor; ATP 1 mM, percent of control): 123.9 ± 6.2% | 125I-insulin specific binding, solubilized endosomes (insulin receptor; ATP 1 mM, percent of control): 90.9 ± 4.2% | 125I-insulin specific binding, WGA-purified endosomes (insulin receptor; ATP 3 mM, percent of control): 99.3 ± 0.9% | 125I-insulin specific binding, solubilized endosomes (insulin receptor; ATP 3 mM, percent of control): 96.7 ± 2.6% | 125I-insulin specific binding, WGA-purified endosomes (insulin receptor; ATP 5 mM, percent of control): 52.1 ± 1.2% | 125I-insulin specific binding, solubilized endosomes (insulin receptor; ATP 5 mM, percent of control): 84.2 ± 2.7% | 125I-insulin specific binding, WGA-purified endosomes (insulin receptor; ATP 10 mM, percent of control): 8.4 ± 0.2% | 125I-Insulin specific binding (%), Solubilized endosomes (insulin receptor; addition 0.1 mM, 37° C. 15 min): 103.4 ± 2.5% | 125I-Insulin specific binding (%), WGA-purified endosomes (insulin receptor; addition 0.1 mM, 37° C. 15 min): 108.1 ± 2.0% | 125I-Insulin specific binding (%), Solubilized endosomes (insulin receptor; addition 1 mM, 37° C. 15 min): 95.5 ± 14.2% | 125I-Insulin specific binding (%), WGA-purified endosomes (insulin receptor; addition 1 mM, 37° C. 15 min): 92.2 ± 2.2% | 125I-Insulin specific binding (%), Solubilized endosomes (insulin receptor; addition 10 mM at 4° C. (on ice)): 112.0 ± 3.3% | 125I-Insulin specific binding (%), Solubilized endosomes (insulin receptor; addition 10 mM, 37° C. 15 min): 43.6 ± 6.3% | 125I-Insulin specific binding (%), WGA-purified endosomes (insulin receptor; addition 10 mM, 37° C. 15 min): 25.2 ± 5.2%
